According to ChEMBL document CHEMBL1201862, “PubChem BioAssay data set” (2004):
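Growth conditions: 96-well plates. Treatment: test compound, 48 hours, 5 concentrations. Analysis: linear interpolation between bracketing concentrations; unreached endpoints set to highest concentration. GI50 is the concentration that inhibits growth by half.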 Calls of active or inactive are those of the source. Cut-off read from the data, not from the text of the source: active = GI50 up to about 1.1 µM and inactive = higher.

Assays:
Assay in all cases: DTP human tumour cell line panel, 48 h
786-0 = test system: 786-0
A498 = test system: A498
A549 = test system: A549
ACHN = test system: ACHN
BT-549 = test system: BT-549
CAKI-1 = test system: CAKI-1
CCRF-CEM = test system: CCRF-CEM
COLO 205 = test system: COLO 205
DU-145 = test system: DU-145
EKVX = test system: EKVX
HCC 2998 = test system: HCC 2998
HCT-116 = test system: HCT-116
HCT-15 = test system: HCT-15
HOP-62 = test system: HOP-62
HT-29 = test system: HT-29
Hs-578T = test system: Hs-578T
K562 = test system: K562
KM12 = test system: KM12
LOX IMVI = test system: LOX IMVI
M14 = test system: M14
MCF7 = test system: MCF7
MDA-MB-231 = test system: MDA-MB-231
MDA-MB-435 = test system: MDA-MB-435
MDA-N = test system: MDA-N
MOLT-4 = test system: MOLT-4
Malme-3M = test system: Malme-3M
NCI-H226 = test system: NCI-H226
NCI-H23 = test system: NCI-H23
NCI-H460 = test system: NCI-H460
NCI-H522 = test system: NCI-H522
OVCAR-3 = test system: OVCAR-3
OVCAR-4 = test system: OVCAR-4
OVCAR-5 = test system: OVCAR-5
OVCAR-8 = test system: OVCAR-8
PC-3 = test system: PC-3
RPMI-8226 = test system: RPMI-8226
SF-268 = test system: SF-268
SF-295 = test system: SF-295
SF-539 = test system: SF-539
SK-MEL-28 = test system: SK-MEL-28
SK-MEL-2 = test system: SK-MEL-2
SK-MEL-5 = test system: SK-MEL-5
SK-OV-3 = test system: SK-OV-3
SN12C = test system: SN12C
SNB-19 = test system: SNB-19
SNB-75 = test system: SNB-75
SR = test system: SR
SW-620 = test system: SW-620
T47D = test system: T47D
TK-10 = test system: TK-10
U-251 = test system: U-251
UACC-257 = test system: UACC-257
UACC-62 = test system: UACC-62
HL-60 = test system: HL-60
IGROV-1 = test system: IGROV-1
NCI/ADR-RES = test system: NCI/ADR-RES
RXF 393 = test system: RXF 393
UO-31 = test system: UO-31

With `CCc1ccccc1NC(=O)/C=C/c1ccccc1` the GI50 (786-0) was > 100 µM (inactive), the GI50 (A498) was > 100 µM (inactive) and the GI50 (A549) was > 100 µM (inactive). For the same molecule, the GI50 (ACHN) was > 100 µM (inactive), the GI50 (BT-549) was > 100 µM (inactive) and the GI50 (CAKI-1) was > 100 µM (inactive). The GI50 (CCRF-CEM) was > 100 µM (inactive), the GI50 (COLO 205) was > 100 µM (inactive) and the GI50 (DU-145) was > 100 µM (inactive). The GI50 (EKVX) was > 100 µM (inactive), the GI50 (HCC 2998) was > 100 µM (inactive) and the GI50 (HCT-116) was > 100 µM (inactive). For the same molecule, the GI50 (HCT-15) was over 100 µM, the GI50 (HOP-62) was 49 µM (inactive) and the GI50 (HT-29) was > 100 µM (inactive). The GI50 (Hs-578T) was 70.6 µM (inactive), the GI50 (K562) was > 100 µM (inactive) and the GI50 (KM12) was > 100 µM (inactive). The GI50 (LOX IMVI) was > 100 µM (inactive), the GI50 (M14) was > 100 µM (inactive) and the GI50 (MCF7) was > 100 µM (inactive). The GI50 (MDA-MB-231) was > 100 µM (inactive), the GI50 (MDA-MB-435) was > 100 µM (inactive) and the GI50 (MDA-N) was > 100 µM (inactive). The GI50 (MOLT-4) was > 100 µM (inactive), the GI50 (Malme-3M) was > 100 µM (inactive) and the GI50 (NCI-H226) was > 100 µM (inactive). For the same molecule, the GI50 (NCI-H23) was > 100 µM (inactive), the GI50 (NCI-H460) was > 100 µM (inactive) and the GI50 (NCI-H522) was > 100 µM (inactive). For the same molecule, the GI50 (OVCAR-3) was > 100 µM (inactive), the GI50 (OVCAR-4) was > 100 µM (inactive) and the GI50 (OVCAR-5) was > 100 µM (inactive). The GI50 (OVCAR-8) was > 100 µM (inactive), the GI50 (PC-3) was > 100 µM (inactive) and the GI50 (RPMI-8226) was > 100 µM (inactive). For the same molecule, the GI50 (SF-268) was > 100 µM (inactive), the GI50 (SF-295) was > 100 µM (inactive) and the GI50 (SF-539) was > 100 µM (inactive). The GI50 (SK-MEL-28) was > 100 µM (inactive), the GI50 (SK-MEL-2) was > 100 µM (inactive) and the GI50 (SK-MEL-5) was > 100 µM (inactive). The GI50 (SK-OV-3) was > 100 µM (inactive), the GI50 (SN12C) was > 100 µM (inactive) and the GI50 (SNB-19) was > 100 µM (inactive). For the same molecule, the GI50 (SNB-75) was > 100 µM (inactive), the GI50 (SR) was > 100 µM (inactive) and the GI50 (SW-620) was > 100 µM (inactive). For the same molecule, the GI50 (T47D) was > 100 µM (inactive), the GI50 (TK-10) was > 100 µM (inactive) and the GI50 (U-251) was 85.9 µM (inactive). The GI50 (UACC-257) was > 100 µM (inactive) and the GI50 (UACC-62) was > 100 µM (inactive).

In the case of `C/C=C/C(O)P1(=O)N(Cc2ccccc2)[C@@H]2CCCC[C@H]2N1Cc1ccccc1` (some centres undefined), the GI50 (786-0) is reported as > 25 µM (inactive), the GI50 (A549) is reported as > 25 µM (inactive) and the GI50 (ACHN) is reported as > 25 µM (inactive). The GI50 (BT-549) was > 25 µM (inactive), the GI50 (CAKI-1) was > 25 µM (inactive) and the GI50 (CCRF-CEM) was > 25 µM (inactive). The GI50 (COLO 205) was > 25 µM (inactive), the GI50 (DU-145) was > 25 µM (inactive) and the GI50 (EKVX) was > 25 µM (inactive). The GI50 (HCC 2998) was > 25 µM (inactive), the GI50 (HCT-116) was > 25 µM (inactive) and the GI50 (HCT-15) was over 25 µM. The GI50 (HL-60) was > 25 µM (inactive), the GI50 (HOP-62) was > 25 µM (inactive) and the GI50 (HT-29) was > 25 µM (inactive). For the same molecule, the GI50 (Hs-578T) was > 25 µM (inactive), the GI50 (IGROV-1) was > 25 µM (inactive) and the GI50 (K562) was > 25 µM (inactive). The GI50 (KM12) was > 25 µM (inactive), the GI50 (LOX IMVI) was > 25 µM (inactive) and the GI50 (M14) was > 25 µM (inactive). The GI50 (MCF7) was > 25 µM (inactive), the GI50 (MDA-MB-231) was > 25 µM (inactive) and the GI50 (MDA-MB-435) was > 25 µM (inactive). The GI50 (MDA-N) was > 25 µM (inactive), the GI50 (MOLT-4) was 19.9 µM (inactive) and the GI50 (Malme-3M) was > 25 µM (inactive). The GI50 (NCI-H226) was > 25 µM (inactive), the GI50 (NCI-H23) was > 25 µM (inactive) and the GI50 (NCI-H460) was > 25 µM (inactive). For the same molecule, the GI50 (NCI-H522) was > 25 µM (inactive), the GI50 (NCI/ADR-RES) was > 25 µM (inactive) and the GI50 (OVCAR-3) was > 25 µM (inactive). The GI50 (OVCAR-4) was > 25 µM (inactive), the GI50 (OVCAR-5) was > 25 µM (inactive) and the GI50 (OVCAR-8) was > 25 µM (inactive). For the same molecule, the GI50 (PC-3) was > 25 µM (inactive), the GI50 (RXF 393) was > 25 µM (inactive) and the GI50 (SF-268) was > 25 µM (inactive). For the same molecule, the GI50 (SF-295) was > 25 µM (inactive), the GI50 (SF-539) was > 25 µM (inactive) and the GI50 (SK-MEL-28) was > 25 µM (inactive). For the same molecule, the GI50 (SK-MEL-2) was > 25 µM (inactive), the GI50 (SK-MEL-5) was > 25 µM (inactive) and the GI50 (SK-OV-3) was > 25 µM (inactive). For the same molecule, the GI50 (SN12C) was > 25 µM (inactive), the GI50 (SNB-19) was > 25 µM (inactive) and the GI50 (SNB-75) was > 25 µM (inactive). For the same molecule, the GI50 (SR) was > 25 µM (inactive), the GI50 (SW-620) was > 25 µM (inactive) and the GI50 (T47D) was > 25 µM (inactive). The GI50 (TK-10) was > 25 µM (inactive), the GI50 (U-251) was > 25 µM (inactive) and the GI50 (UACC-257) was > 25 µM (inactive). The GI50 (UACC-62) was > 25 µM (inactive) and the GI50 (UO-31) was > 25 µM (inactive).
